Like-named read-outs stand apart in the source and are kept apart here.

Series [1] relates to cytohesin-2. As to the kind of experiment: luciferase assay in HeLa-cells (serum response element activation, MAPK path via cytohesin-2). In kind it is cell-based. To be noted: compounds 1 μM to 50 μM, read-out: IC50 (luciferase signal). The procedure: The IC50 value was determined in comparison to the LC50 value in a luciferase assay in HeLa-cells, corresponding to the test conditions described in Theis, M. G. et al., Proc Natl Acad Sci USA, 101, 11221-26 (2004). The stimulation of receptor tyrosine kinases by means of growth factors contained in fetal calf serum activates the MAPK path via cytohesin-2 and results in an activation of the serum response element. This activation manifests itself in the quantity of luciferase produced in the cells.
Compounds (9), (10), (11), (12), (14) and (19) were each added in concentrations of 1 μM to 50 μM to 6.5×10^4 HeLa-cells.
The IC50 value was determined from the plotting of the concentration of the compound against the intensity of the luciferase signal.

Series [2] in a line: MTT assay (LC50) in HeLa-cells. Type of series: cell-based. The following applies: human, after 24 hours. On the procedure: The LC50 values were determined by an MTT assay according to a standard method.
The LC50 value describes the lethal concentration at which […] died within 24 hours after a one-time administration.

For series [3], the target named is T1, sec7-domain of cytohesin-1 (Homo sapiens, UniProt Q15438).
T1 construct: central sec7-domain, corresponding to the amino acids 62-244 in cytohesin-1; made in house; host or cells: E. coli BL21DE3
T1 sequence (Q15438 62-244): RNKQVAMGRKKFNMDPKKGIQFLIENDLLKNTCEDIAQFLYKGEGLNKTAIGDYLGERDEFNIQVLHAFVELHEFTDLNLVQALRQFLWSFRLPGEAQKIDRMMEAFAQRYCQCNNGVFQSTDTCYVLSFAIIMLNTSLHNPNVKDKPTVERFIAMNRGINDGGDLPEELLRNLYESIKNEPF
The experiment in a line: GDP/GTP exchange on NΔ17-ARF1 catalysed by sec7-domain (tryptophan fluorescence). In kind it is biochemical. To be noted: 1 μM NΔ17-ARF1, 1 μM sec7-domain, compounds 1 μM to 30 μM. The procedure:
(§1) The IC50 value for the inhibition of the exchange activity of the sec7-domains of various guanine nucleotide exchange factors of the compounds (9), (10), (11), (12), (14) and (19) was determined.
(§2) For this purpose, the sec7-domains of cytohesin-1, cytohesin-2 and Gea2 as well as the NΔ 17-ARF 1, a mutant of the ARF protein, recombinantly expressed in E. coli BL21DE3, were purified by means of a standard method and used as catalysts for the exchange from GDP to GTP in GTPases of the family of the ADP ribosylation factors. The exchange from GDP to GTP induces a conformation change of the ribosylation factor, as a result of which the fluorescence of a tryptophan radical of the protein is increased.
(§3) In 50 mM of HEPES, pH 7.4, 120 mM of KCl, 1 mM of MgCl2, 45 μM of GTP S, the compounds (9), (10), (11), (12), (14) and (19), each in concentrations of 1 μM to 30 μM, were added to 1 μM NΔ 17-ARF1 and, in each case, 1 μM of the purified sec7-domain of cytohesin-1, cytohesin-2 and Gea2, and the fluorescence was measured in a Varioskan, Thermo LifeSciences Inc., at the following wavelengths: excitation: 275 nm, emission 340 nm.
(§4) The IC50 value can be determined by plotting the initial rise of the fluorescence signal against the added concentrations of the compounds. The IC50 value corresponds to the concentration of the compounds at which the activity of the protein is reduced to half. […] Brefeldin A, a specific inhibitor of the […] Gea2 served as the control.

The subject of series [4] is sec7-domain of cytohesin-1. The series is described as above. Type of series: biochemical. To be noted: conclusion in words from Table 1. On the procedure:
as §1, §2, §3, §4

Series [5] deals with T2, sec7-domain of cytohesin-2 (Homo sapiens, UniProt Q99418).
T2 construct: 1 μM of the purified sec7-domain of cytohesin-1, cytohesin-2 and Gea2; made in house; host or cells: E. coli BL21DE3
T2 sequence (Q99418 72-201 limits assumed): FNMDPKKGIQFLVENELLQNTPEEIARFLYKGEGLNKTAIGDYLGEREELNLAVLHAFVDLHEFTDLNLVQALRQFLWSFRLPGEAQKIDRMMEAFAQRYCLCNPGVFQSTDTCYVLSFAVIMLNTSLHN
The description is as above. To be noted: 1 μM NΔ17-ARF1, 1 μM sec7-domain, compounds 1 μM to 30 μM. In kind it is biochemical. The procedure:
as §1, §2, §3, §4

Series [6] addresses T3, sec7-domain of Gea2 (Saccharomyces cerevisiae, UniProt P39993).
T3 construct: 1 μM of the purified sec7-domain of cytohesin-1, cytohesin-2 and Gea2; made in house; host or cells: E. coli BL21DE3
Described as above. Type of series: biochemical. The procedure:
as §1, §2, §3, §4

Series [7] has as its system human peripheral blood cells (PBL). As to the kind of experiment: adhesion of human peripheral blood cells (PBL) to ICAM-1 after stimulation with OKT3 or PMA. Type of series: cell-based. The following applies: stimulation with OKT3; FIG. 2. An excerpt:
Human peripheral blood cells (PBL) were stimulated with agonists that activate a beta-2 integrin-dependent adhesion. In these primary human lymphocytes, the beta-2 integrin-dependent adhesion can be activated by cytohesins at the specific ligands ICAM-1.
The agonists employed were the monoclonal antibody OKT3 (hybridome of ATCC, mAb OKT3 purified on protein A, according to standard methods from Current Protocols in Immunology, 5th Ed., Coligan et al., Edts, Wiley 2004) against the CD3 complex, a T-cell receptor and phorbolester (PMA), which non-physiologically activates intracellular signal cascades in human PBL including integrin-dependent adhesion while circumventing cytohesins.
Cells from human blood were isolated according to standard methods (Current Protocols in Immunology, 5th Ed., 2004, Coligan et al., Edts, Wiley). Cell culture dishes coated with ICAM-1 were produced by means of recombinant ICAM-1-Fc fusion protein (Kolanus, W. et al., Cell 86, 233-42 (1996), Geiger, C. et al., EMBO J., 19, 2525-2536 (2000)). 300,000 human peripheral blood cells (PBL) were stimulated for 30 minutes with 2 μg/ml of OKT3 or 40 ng/ml of phorbolester (PMA) in Hank's BSS, (Gibco; composition (g/l): CaCl2x2H2O (0.185), KCl (0.4), KH2PO4 (0.06), MgCl2x6H2O (0.1), MgSO4x7H2O (0.1), NaCl (8.0), NaHCO3 (0.35), Na2HPO4 (0.048), D-glucose (1.0)), and placed for one hour in Hank's BSS onto the ICAM-1 coated cell culture dishes, whereby the agonists were not removed. Non-bound cells were removed by washing with Hank's BSS. The percentage of bound cells was determined by counting under a microscope using a standard counting grid.

T3 sequence (P39993 570-714): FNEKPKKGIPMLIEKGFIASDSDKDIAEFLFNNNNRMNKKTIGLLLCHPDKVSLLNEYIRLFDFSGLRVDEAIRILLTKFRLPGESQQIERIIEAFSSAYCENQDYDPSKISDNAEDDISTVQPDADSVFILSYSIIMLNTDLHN

One may read the IC50 as the concentration that gives 50% inhibition. A word on the CC50: it is the concentration at which the toxic effect on the cells reaches its halfway point. Low values mean harm at low concentration, high ones better tolerance by the cells. On to `CC(C)(C)c1ccc(S(=O)(=O)N(Cc2ccc(OS(C)(=O)=O)cc2)CC2CCCO2)cc1` (stereo not shown) [Control 1, reference compound], for which the concentration for half-maximal inhibition (IC50) in series [1] was more than 50 µM. The compound also gave a CC50 at 24 h in series [2] of more than 150 µM.
Take `O=C(O)[C@H]1CSCN1C(=O)Cc1cccs1` [Compound 19]: the IC50 is 15 ± 0.3 µM in series [3], 20 ± 0.6 µM in series [5] and 3.5 ± 0.5 µM in series [1]. In series [4], the “specificity of inhibition of sec7-domains (cytohesins vis-à-vis Gea2)” value is reported as “specific inhibition of the sec7-domains of the cytohesins”. For the same compound, the CC50 at 24 h in series [2] was more than 150 µM.
Regarding `C[C@H]1CCC/C=C/[C@@H]2C[C@H](O)C[C@H]2[C@H](O)/C=C/C(=O)O1` [Brefeldin A, reference compound], the concentration for half-maximal inhibition (IC50) in series [6] (1 μM NΔ17-ARF1, 1 μM sec7-domain, compounds 1 μM to 30 μM, read-out: IC50 Gea2-sec7) is 23 ± 1 µM; in series [3], more than 150 µM; in series [5], more than 150 µM. Further, the “specificity of inhibition of sec7-domains (cytohesins vis-à-vis Gea2)” value in series [4] is on record as “specific inhibition of the sec7-domain of Gea2”.
As to `CCOc1nc(-c2ccccc2F)n(-c2ccc(NC(=O)CSc3ccccc3)cc2)n1` [Compound 11], the IC50 came out at 42 ± 4 µM in series [6], 8.8 ± 0.3 µM in series [3], 12.4 ± 0.3 µM in series [5] and 5 ± 1.5 µM in series [1]. The “specificity of inhibition of sec7-domains (cytohesins vis-à-vis Gea2)” value in series [4] was “specific inhibition of the sec7-domains of the cytohesins”. In addition, the midpoint of cytotoxicity in series [2], the CC50 at 24 h, lay at 142 ± 12 µM.
`CCOCCCN(Cc1nc(C(=O)NCCCOCO)co1)C(=O)c1ccccc1Br` [Control 2, reference compound]: the “effect on OKT3-mediated adhesion in primary human lymphocytes” value in series [7] was “no effect”.
Take `O=C(CN(CC1CCCO1)C(=O)Cc1cccs1)N(Cc1ccc(F)cc1)Cc1ccco1` (stereo not shown) [Compound 14]: the IC50 in series [3] worked out at 14.8 ± 0.3 µM; in series [5], 19.3 ± 0.3 µM; in series [1], 3 ± 1 µM. Besides, in series [4], the “specificity of inhibition of sec7-domains (cytohesins vis-à-vis Gea2)” value is on record as “specific inhibition of the sec7-domains of the cytohesins”.
Consider `CCOc1nc(-c2cccc(F)c2)n(-c2ccc(NC(=O)Cc3cccs3)cc2)n1` [Compound 10], for which the IC50 in series [6] was 67 ± 5 µM; in series [3], 12.6 ± 0.3 µM; in series [5], 16.1 ± 0.9 µM; in series [1] it was 23 ± 5 µM. In addition, the “specificity of inhibition of sec7-domains (cytohesins vis-à-vis Gea2)” value in series [4] is “specific inhibition of the sec7-domains of the cytohesins”. This compound gave a 50% cytotoxic concentration (CC50) at 24 h in series [2] of more than 150 µM.
For `CN(c1cc(Cl)nc(SCc2ccc(C(=O)NCc3ccco3)cc2)n1)C1CCCCC1` [Compound 12], the IC50 in series [6] was 22 ± 2 µM; in series [3], 8 ± 0.3 µM; in series [5], 19.5 ± 0.3 µM; in series [1], 5 ± 1.5 µM. The “specificity of inhibition of sec7-domains (cytohesins vis-à-vis Gea2)” value in series [4] is “specific inhibition of the sec7-domains of the cytohesins”. This compound also showed a 50% cytotoxic concentration (CC50) at 24 h in series [2] of more than 150 µM.

The values above are taken from patent publication US8163788B2, “Low-molecular inhibitors of cytohesin-family guanine nucleotide exchange factors” (Rheinische Friedrich-Wilhelms Universitat Bonn, priority 2004, dated 2012).
